# Experimental data taken from ChEMBL document CHEMBL3886166, “Heterocyclic compounds” (2015).
# Target: T1, Transient receptor potential cation channel subfamily V member 1 (Homo sapiens, UniProt Q8NER1)
# Assay: pH-Based Assay: Two days prior to performing this assay, cells are seeded on poly-D-lysine-coated 96-well clear-bottom black plates (commercially available from Becton-Dickinson) at 75,000 cells/well in growth media containing 5 uM PonA (commercially available from Invitrogen) to induce expression of TRPV1. On the day of the assay, the plates are washed with 0.2 mL 1x Hank's Balanced Salt Solution (commercially available from Life Technologies) containing 1.6 mM CaCl2 and 20 mM HEPES, pH 7.4 (wash buffer), and loaded using 0.1 mL of wash buffer containing Fluo-4 (3 uM final concentration, commercially available from Molecular Probes). After 1 h, the cells are washed twice with 0.2 mL wash buffer and resuspended in 0.05 mL 1x Hank's Balanced Salt Solution (commercially available from Life Technologies) containing 3.5 mM CaCl2 and 10 mM Citrate, pH 7.4 (assay buffer). Plates are then transferred to a FLIPR for assay.
# T1 sequence (Q8NER1 whole entry): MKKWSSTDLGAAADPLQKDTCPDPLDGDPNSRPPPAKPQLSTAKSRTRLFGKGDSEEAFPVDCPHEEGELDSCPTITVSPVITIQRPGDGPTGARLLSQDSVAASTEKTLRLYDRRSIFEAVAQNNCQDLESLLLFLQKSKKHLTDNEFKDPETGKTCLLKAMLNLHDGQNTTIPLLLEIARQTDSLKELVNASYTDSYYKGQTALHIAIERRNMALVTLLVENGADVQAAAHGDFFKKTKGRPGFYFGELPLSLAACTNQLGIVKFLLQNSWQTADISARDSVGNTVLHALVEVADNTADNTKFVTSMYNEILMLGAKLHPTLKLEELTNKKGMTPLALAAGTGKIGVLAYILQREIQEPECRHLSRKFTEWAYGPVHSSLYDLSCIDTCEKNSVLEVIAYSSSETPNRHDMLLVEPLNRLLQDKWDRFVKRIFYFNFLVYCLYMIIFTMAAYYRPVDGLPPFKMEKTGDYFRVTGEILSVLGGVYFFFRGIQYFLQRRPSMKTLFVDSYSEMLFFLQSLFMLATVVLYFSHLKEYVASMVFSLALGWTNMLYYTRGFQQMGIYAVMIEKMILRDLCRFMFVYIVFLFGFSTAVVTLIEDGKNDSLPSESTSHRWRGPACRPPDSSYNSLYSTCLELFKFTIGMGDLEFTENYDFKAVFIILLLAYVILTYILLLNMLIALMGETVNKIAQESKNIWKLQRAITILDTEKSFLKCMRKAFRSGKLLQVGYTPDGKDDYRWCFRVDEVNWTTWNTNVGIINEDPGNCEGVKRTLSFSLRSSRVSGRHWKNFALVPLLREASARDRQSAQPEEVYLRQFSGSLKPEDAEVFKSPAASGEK
row,SMILES,IC50 [nM]
1,O=C(Nc1ccc(C(F)(F)F)cn1)N1CCN(c2ncc(-c3nc(CO)no3)cc2Cl)CC1,< 100
2,Cc1noc(-c2cnc(C3=CCN(C(=O)Nc4ccc(OC(F)(F)F)cc4)CC3)c(Cl)c2)n1,< 100
3,Cc1cc(NC(=O)N2CCN(c3ncc(-c4nc(CO)no4)cc3Cl)CC2)ccc1C(F)(F)F,< 100
4,O=C(Nc1ccc(C(F)(F)F)c(Cl)c1)N1CCC(F)(c2ncc(-c3nc(CO)no3)cc2Cl)CC1,< 100
5,Cc1noc(-c2cnc(C3=CCN(C(=O)Nc4ccc(C(F)(F)F)cc4)CC3)c(Cl)c2)n1,< 100
6,O=C(Nc1ccc(C(F)(F)F)cn1)N1CC=C(c2ncc(-c3cc(CO)on3)cc2Cl)CC1,< 100
7,Cc1cc(NC(=O)N2CCC(F)(c3ncc(-c4nc(CO)no4)cc3Cl)CC2)ccc1C(F)(F)F,< 100
8,O=C(Nc1ccc(C(F)(F)F)c(Cl)c1)N1CCC(F)(c2ncc(-c3noc(CO)n3)cc2Cl)CC1,< 100
9,O=C(Nc1ccc(C(F)(F)F)cn1)N1CCC(F)(c2ncc(-c3noc(CO)n3)cc2Cl)CC1,< 100

# More lines, now with the values ahead:
row,IC50 [nM],SMILES
1,< 100,Cc1cc(NC(=O)N2CC=C(c3ncc(-c4nnc(CCO)o4)cc3Cl)CC2)ccc1OC(F)(F)F
2,< 100,O=C(Nc1ccc(C(F)(F)F)cn1)N1CC=C(c2ncc(-c3cnc(CO)o3)cc2Cl)CC1
3,< 100,Cc1cc(NC(=O)N2CC=C(c3ncc(-c4nnc(CCO)o4)cc3Cl)CC2)ccc1C(F)(F)F
4,< 100,O=C(Nc1ccc(C(F)(F)F)c(Cl)c1)N1CCN(c2ncc(-c3nnc(CO)o3)cc2Cl)CC1
5,< 100,Cc1cc(NC(=O)N2CC=C(c3ncc(-c4nc(CO)no4)cc3Cl)CC2)ccc1C(F)(F)F
6,< 100,O=C(Nc1ccc(C(F)(F)F)c(Cl)c1)N1CC=C(c2ncc(-c3ocnc3CO)cc2Cl)CC1
7,< 100,Cc1cc(NC(=O)N2CCN(c3ncc(-c4nnc(CO)o4)cc3Cl)CC2)ccc1C(F)(F)F
8,< 100,Cc1nnc(-c2cnc(C3=CCN(C(=O)Nc4ccc(C(F)(F)F)cn4)CC3)c(Cl)c2)o1
9,< 100,O=C(Nc1ccc(C(F)(F)F)c(Cl)c1)N1CC=C(c2ncc(-c3cc(CO)on3)cc2Cl)CC1
10,< 100,O=C(Nc1ccc(C(F)(F)F)cn1)N1CC=C(c2ccc(-c3nnc(CO)o3)cc2Cl)CC1

# Target: T1, Transient receptor potential cation channel subfamily V member 1
# Assay: Capsaicin-Based Assay: Two days prior to performing this assay, cells are seeded in poly-D-lysine-coated 96-well clear-bottom black plates (50,000 cells/well) in growth media containing 5 uM PonA (commercially available from Invitrogen) to induce expression of TRPV1. On the day of the assay, the plates are washed with 0.2 mL 1x Hank's Balanced Salt Solution (commercially available from Life Technologies) containing 1 mM CaCl2 and 20 mM HEPES, pH 7.4, and cells are loaded using 0.1 mL of wash buffer containing Fluo-4 (3 uM final). After one hour, the cells are washed twice with 0.2 mL of wash buffer and resuspended in 0.1 mL of wash buffer. The plates are transferred to a FLIPR for assay. 50 uL of test compound diluted with assay buffer (1x Hank's Balanced Salt Solution containing 1 mM CaCl2 and 20 mM HEPES, pH 7.4) are added to the cell plates and incubated for 2 min. The final concentration of the compound is adjusted to range from about 50 picoM to about 3 uM.
row,SMILES,IC50 [nM]
1,O=C(Nc1ccc(C(F)(F)F)cn1)N1CC=C(c2ncc(-c3nc(CO)no3)cc2Cl)CC1,< 100
2,Cc1cc(NC(=O)N2CCC(F)(c3ncc(-c4ocnc4CO)cc3Cl)CC2)ccc1C(F)(F)F,< 100
3,O=C(C#Cc1ccc(-c2nnc(CO)o2)cc1Cl)Nc1ccc(C(F)(F)F)c(Cl)c1,< 100
4,O=C(Nc1ccc(C(F)(F)F)cn1)N1CC=C(c2ncc(-c3noc(CO)n3)cc2Cl)CC1,< 100
5,O=C(C#Cc1ccc(-c2nnc(CO)o2)cc1Cl)Nc1ccc(C(F)(F)F)cc1,< 100
6,O=C(Nc1ccc(C(F)(F)F)cn1)N1CCN(c2ncc(-c3nnc(CO)o3)cc2Cl)CC1,< 100
7,O=C(Nc1ccc(C(F)(F)F)cn1)N1CC=C(c2ncc(-c3nc(CO)no3)cc2F)CC1,< 100

# Other lines, results leading:
row,IC50 [nM],SMILES
1,< 100,O=C(Nc1ccc(C(F)(F)F)c(Cl)c1)N1CC=C(c2ncc(-c3noc(CO)n3)cc2Cl)CC1
2,< 100,Cc1nnc(-c2cnc(C3=CCN(C(=O)Nc4ccc(OC(F)(F)F)cc4)CC3)c(Cl)c2)o1
3,< 100,O=C(Nc1ccc(C(F)(F)F)cc1)N1CC=C(c2ncc(-c3nnc(CO)o3)cc2Cl)CC1
4,< 100,O=C(Nc1ccc(C(F)(F)F)c(Cl)c1)N1CC=C(c2ncc(-c3nnc(CO)o3)cc2Cl)CC1
5,< 100,O=C(Nc1ccc(C(F)(F)F)cn1)N1CC=C(c2ncc(-c3nnc(CO)o3)cc2Cl)CC1
6,< 100,Cc1cc(NC(=O)N2CC=C(c3ncc(-c4nc(CO)no4)cc3F)CC2)ccc1C(F)(F)F
7,< 100,Cc1nnc(-c2cnc(C3=CCN(C(=O)Nc4ccc(C(F)(F)F)cc4)CC3)c(Cl)c2)o1
